PubChem BioAssay (NCI)
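96-well plates; 48 h exposure; 5 concentrations. Endpoints by linear interpolation between flanking doses. Not reached: highest tested concentration assigned. GI50 is the concentration that inhibits growth by half. TGI: concentration producing complete growth inhibition.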

Legend:
Assay in all cases: inhibition of tumour cell growth, NCI panel, 48 h
HOP-62 NSCLC = tested on: HOP-62 NSCLC
NCI-H460 lung = tested on: NCI-H460 lung
RXF-631 renal = tested on: RXF-631 renal
CCRF-CEM leukemia = tested on: CCRF-CEM leukemia
MOLT-4 leukemia = tested on: MOLT-4 leukemia
RPMI-8226 leukemia = tested on: RPMI-8226 leukemia
SF-268 CNS = tested on: SF-268 CNS
NCI-H226 lung = tested on: NCI-H226 lung
OVCAR-8 ovarian = tested on: OVCAR-8 ovarian
SF-295 CNS = tested on: SF-295 CNS
XF 498 CNS = tested on: XF 498 CNS
DMS 273 small cell lung = tested on: DMS 273 small cell lung
OVCAR-5 ovarian = tested on: OVCAR-5 ovarian
K-562 leukemia = tested on: K-562 leukemia
U251 CNS = tested on: U251 CNS
SW-620 colon = tested on: SW-620 colon
NCI-H23 lung = tested on: NCI-H23 lung
A549 NSCLC = tested on: A549 NSCLC
EKVX NSCLC = tested on: EKVX NSCLC
SR leukemia = tested on: SR leukemia
SNB-75 CNS = tested on: SNB-75 CNS
MALME-3M melanoma = tested on: MALME-3M melanoma
786-0 renal = tested on: 786-0 renal
M19-MEL melanoma = tested on: M19-MEL melanoma
ACHN renal = tested on: ACHN renal
HCC-2998 colon = tested on: HCC-2998 colon
LXFL 529 NSCLC = tested on: LXFL 529 NSCLC
CAKI-1 renal = tested on: CAKI-1 renal
DLD-1 colon = tested on: DLD-1 colon
OVCAR-3 ovarian = tested on: OVCAR-3 ovarian
TK-10 renal = tested on: TK-10 renal
SNB-19 CNS = tested on: SNB-19 CNS
HCT-15 colon = tested on: HCT-15 colon
NCI-H522 lung = tested on: NCI-H522 lung
KM20L2 colon = tested on: KM20L2 colon
SK-MEL-28 melanoma = tested on: SK-MEL-28 melanoma
DMS 114 small cell lung = tested on: DMS 114 small cell lung
SNB-78 CNS = tested on: SNB-78 CNS
IGROV1 ovarian = tested on: IGROV1 ovarian
HL-60(TB) leukemia = tested on: HL-60(TB) leukemia
SK-OV-3 ovarian = tested on: SK-OV-3 ovarian
M14 melanoma = tested on: M14 melanoma
SN12C renal = tested on: SN12C renal
SK-MEL-2 melanoma = tested on: SK-MEL-2 melanoma
OVCAR-4 ovarian = tested on: OVCAR-4 ovarian
LOX IMVI melanoma = tested on: LOX IMVI melanoma
COLO 205 colon = tested on: COLO 205 colon
RXF 393 renal = tested on: RXF 393 renal
HT29 colon = tested on: HT29 colon
UACC-257 melanoma = tested on: UACC-257 melanoma
SF-539 CNS = tested on: SF-539 CNS
UO-31 renal = tested on: UO-31 renal
KM12 colon = tested on: KM12 colon
UACC-62 melanoma = tested on: UACC-62 melanoma
HCT-116 colon = tested on: HCT-116 colon
MDA-MB-231 breast = tested on: MDA-MB-231 breast
MDA-MB-435 = tested on: MDA-MB-435
SK-MEL-5 melanoma = tested on: SK-MEL-5 melanoma
T-47D breast = tested on: T-47D breast
HS 578T breast = tested on: HS 578T breast
PC-3 prostate = tested on: PC-3 prostate
HOP-92 NSCLC = tested on: HOP-92 NSCLC
NCI/ADR-RES ovarian = tested on: NCI/ADR-RES ovarian
DU-145 prostate = tested on: DU-145 prostate
A498 renal = tested on: A498 renal
BT-549 breast = tested on: BT-549 breast
MCF7 breast = tested on: MCF7 breast

Q: What does the source list for `CCC1=CCN(c2ccc(C)cc2)OC1c1ccc(OC)cc1` (configuration not stated)?
A: TGI (HOP-62 NSCLC): > 100 µM; TGI (NCI-H460 lung): > 100 µM; TGI (RXF-631 renal): > 100 µM; TGI (CCRF-CEM leukemia): > 100 µM; TGI (MOLT-4 leukemia): > 100 µM; TGI (RPMI-8226 leukemia): > 100 µM; TGI (SF-268 CNS): > 100 µM; TGI (NCI-H226 lung): > 100 µM; TGI (OVCAR-8 ovarian): > 100 µM; TGI (SF-295 CNS): > 100 µM; TGI (XF 498 CNS): > 100 µM; TGI (DMS 273 small cell lung): > 100 µM; TGI (OVCAR-5 ovarian): > 100 µM; TGI (K-562 leukemia): > 100 µM; TGI (U251 CNS): > 100 µM; TGI (SW-620 colon): > 100 µM; TGI (NCI-H23 lung): > 100 µM; TGI (A549 NSCLC): > 100 µM; TGI (EKVX NSCLC): > 100 µM; TGI (SR leukemia): > 100 µM; TGI (SNB-75 CNS): > 100 µM; TGI (MALME-3M melanoma): > 100 µM; TGI (786-0 renal): > 100 µM; TGI (M19-MEL melanoma): > 100 µM; TGI (ACHN renal): > 100 µM; TGI (HCC-2998 colon): > 100 µM; TGI (LXFL 529 NSCLC): > 100 µM; TGI (CAKI-1 renal): > 100 µM; TGI (DLD-1 colon): > 100 µM; TGI (OVCAR-3 ovarian): > 100 µM; TGI (TK-10 renal): > 100 µM; TGI (SNB-19 CNS): > 100 µM; TGI (HCT-15 colon): > 100 µM; TGI (NCI-H522 lung): > 100 µM; TGI (KM20L2 colon): > 100 µM; TGI (SK-MEL-28 melanoma): > 100 µM; TGI (DMS 114 small cell lung): > 100 µM; TGI (SNB-78 CNS): > 100 µM; TGI (IGROV1 ovarian): > 100 µM; TGI (HL-60(TB) leukemia): > 100 µM; TGI (SK-OV-3 ovarian): > 100 µM; TGI (M14 melanoma): > 100 µM; TGI (SN12C renal): > 100 µM; TGI (SK-MEL-2 melanoma): > 100 µM; TGI (OVCAR-4 ovarian): > 100 µM; TGI (LOX IMVI melanoma): > 100 µM; TGI (COLO 205 colon): > 100 µM; TGI (RXF 393 renal): > 100 µM; TGI (HT29 colon): > 100 µM; TGI (UACC-257 melanoma): > 100 µM; TGI (SF-539 CNS): > 100 µM; TGI (UO-31 renal): > 100 µM; TGI (KM12 colon): > 100 µM; TGI (UACC-62 melanoma): > 100 µM; TGI (HCT-116 colon): > 100 µM

Q: For `CN(C)CCONC(=O)C12CC3CC(CC(C3)C1)C2`, which TGI (HOP-62 NSCLC) is on record?
A: > 100 µM

Q: What about the TGI (NCI-H460 lung) of the same molecule?
A: > 100 µM

Q: And the TGI (RXF-631 renal)?
A: > 100 µM

Q: And the TGI (CCRF-CEM leukemia)?
A: > 100 µM

Q: And the TGI (MOLT-4 leukemia)?
A: > 100 µM

Q: What about the GI50 (MDA-MB-231 breast) of the same molecule?
A: > 100 µM

Q: And the TGI (MDA-MB-231 breast)?
A: > 100 µM

Q: And the GI50 (MDA-MB-435)?
A: > 100 µM

Q: And the TGI (MDA-MB-435)?
A: > 100 µM

Q: What about the TGI (RPMI-8226 leukemia) of the same molecule?
A: > 100 µM

Q: What about the TGI (SF-268 CNS) of the same molecule?
A: > 100 µM

Q: What about the TGI (NCI-H226 lung) of the same molecule?
A: > 100 µM

Q: And the TGI (OVCAR-8 ovarian)?
A: > 100 µM

Q: And the TGI (SF-295 CNS)?
A: > 100 µM

Q: And the TGI (XF 498 CNS)?
A: > 100 µM

Q: And the TGI (OVCAR-5 ovarian)?
A: > 100 µM

Q: What about the TGI (K-562 leukemia) of the same molecule?
A: > 100 µM

Q: And the TGI (SK-MEL-5 melanoma)?
A: > 100 µM

Q: What about the TGI (U251 CNS) of the same molecule?
A: > 100 µM

Q: What about the GI50 (T-47D breast) of the same molecule?
A: > 100 µM

Q: And the TGI (T-47D breast)?
A: > 100 µM

Q: And the GI50 (SW-620 colon)?
A: > 100 µM

Q: And the TGI (SW-620 colon)?
A: > 100 µM

Q: What about the GI50 (HS 578T breast) of the same molecule?
A: > 100 µM

Q: And the TGI (HS 578T breast)?
A: > 100 µM

Q: What about the GI50 (PC-3 prostate) of the same molecule?
A: > 100 µM

Q: What about the TGI (PC-3 prostate) of the same molecule?
A: > 100 µM

Q: What about the TGI (HOP-92 NSCLC) of the same molecule?
A: > 100 µM

Q: And the TGI (NCI-H23 lung)?
A: > 100 µM

Q: What about the TGI (A549 NSCLC) of the same molecule?
A: > 100 µM

Q: And the TGI (EKVX NSCLC)?
A: > 100 µM

Q: What about the GI50 (NCI/ADR-RES ovarian) of the same molecule?
A: > 100 µM

Q: And the TGI (NCI/ADR-RES ovarian)?
A: > 100 µM

Q: And the TGI (SR leukemia)?
A: > 100 µM

Q: What about the TGI (SNB-75 CNS) of the same molecule?
A: > 100 µM

Q: What about the TGI (786-0 renal) of the same molecule?
A: > 100 µM

Q: What about the TGI (M19-MEL melanoma) of the same molecule?
A: > 100 µM

Q: What about the TGI (ACHN renal) of the same molecule?
A: > 100 µM

Q: What about the GI50 (DU-145 prostate) of the same molecule?
A: > 100 µM

Q: What about the TGI (DU-145 prostate) of the same molecule?
A: > 100 µM

Q: And the GI50 (HCC-2998 colon)?
A: > 100 µM

Q: What about the TGI (HCC-2998 colon) of the same molecule?
A: > 100 µM

Q: What about the TGI (LXFL 529 NSCLC) of the same molecule?
A: > 100 µM

Q: What about the TGI (CAKI-1 renal) of the same molecule?
A: > 100 µM

Q: What about the TGI (DLD-1 colon) of the same molecule?
A: > 100 µM

Q: And the TGI (OVCAR-3 ovarian)?
A: > 100 µM

Q: What about the TGI (TK-10 renal) of the same molecule?
A: > 100 µM

Q: And the TGI (SNB-19 CNS)?
A: > 100 µM

Q: What about the TGI (A498 renal) of the same molecule?
A: > 100 µM

Q: And the TGI (HCT-15 colon)?
A: > 100 µM

Q: And the TGI (NCI-H522 lung)?
A: > 100 µM

Q: What about the TGI (KM20L2 colon) of the same molecule?
A: > 100 µM

Q: And the TGI (SK-MEL-28 melanoma)?
A: > 100 µM

Q: And the GI50 (BT-549 breast)?
A: > 100 µM

Q: And the TGI (BT-549 breast)?
A: > 100 µM

Q: What about the TGI (DMS 114 small cell lung) of the same molecule?
A: > 100 µM

Q: And the TGI (SNB-78 CNS)?
A: 69.2 µM

Q: What about the TGI (IGROV1 ovarian) of the same molecule?
A: > 100 µM

Q: And the TGI (HL-60(TB) leukemia)?
A: > 100 µM

Q: What about the TGI (SK-OV-3 ovarian) of the same molecule?
A: > 100 µM

Q: What about the TGI (M14 melanoma) of the same molecule?
A: > 100 µM

Q: What about the TGI (SN12C renal) of the same molecule?
A: > 100 µM

Q: And the TGI (SK-MEL-2 melanoma)?
A: > 100 µM

Q: And the GI50 (OVCAR-4 ovarian)?
A: > 100 µM

Q: What about the TGI (OVCAR-4 ovarian) of the same molecule?
A: > 100 µM

Q: What about the TGI (LOX IMVI melanoma) of the same molecule?
A: > 100 µM

Q: And the TGI (COLO 205 colon)?
A: > 100 µM

Q: What about the TGI (RXF 393 renal) of the same molecule?
A: > 100 µM

Q: What about the GI50 (MCF7 breast) of the same molecule?
A: > 100 µM

Q: And the TGI (MCF7 breast)?
A: > 100 µM

Q: What about the TGI (HT29 colon) of the same molecule?
A: > 100 µM

Q: And the TGI (UACC-257 melanoma)?
A: > 100 µM

Q: And the TGI (SF-539 CNS)?
A: > 100 µM

Q: What about the TGI (UO-31 renal) of the same molecule?
A: > 100 µM

Q: What about the TGI (KM12 colon) of the same molecule?
A: > 100 µM

Q: What about the TGI (UACC-62 melanoma) of the same molecule?
A: > 100 µM

Q: What about the TGI (HCT-116 colon) of the same molecule?
A: > 100 µM
